Experimental findings from patent US10947196B2, “Beta adrenergic agonist and methods of using the same” (CURASEN THERAPEUTICS, INC., priority 2019, dated 2021) are described below.

What all share (assay type): cell-based
Assay [1] has as its target β2 adrenergic receptors in human astrocytoma cells (1321N1) (Homo sapiens (Human), UniProt P07550). In words: cAMP HTRF assay in human astrocytoma cells (1321N1). The conditions noted are these: Endogenous receptor, 1321N1 cells. The protocol: cAMP homogeneous time-resolved fluorescence (HTRF). Compound efficacy was determined using the cAMP Gs dynamic HTRF assay (Cisbio, catalog #62AM4PEC) largely following the manufacturer's instructions, also detailed below.
Compound preparation. […] Standard serial dilution curves were 10-point, 5-fold dilutions starting from a highest concentration of 10 μM. […] Assay plates were centrifuged at 500×g for 10 seconds. Compounds and IBMX were prepared at 2× final dose to compensate for addition of cells.
Cell preparation. 1× stimulation buffer, washing PBS (Dulbecco's phosphate-buffered saline, −Mg −Ca; Caisson Labs, catalog #PBL01), assay PBS (Dulbecco's phosphate-buffered saline, +Mg, +Ca; Caisson Labs, catalog #PBL02) and Versene (0.02% EDTA disodium salt solution in PBS without calcium or magnesium; Caisson Labs, catalog #EDL01) were pre-warmed to 37° C. Cells expressing beta-adrenergic receptor were washed in washing PBS to remove growth medium and then released from the surface by incubating with Versene for 5-10 minutes at 37° C. Cells were harvested using assay PBS, counted manually by hemocytometer or by an automated cell counter, pelleted by centrifugation (200×g, 5 minutes) and resuspended in 37° C. 1× stimulation buffer to a final density of 1.5×10^6 cells/mL. 5 μL of the suspended cell solution (7500 cell total) were added to all wells of the 384 well assay plate, the assay plate was covered with an Axygen® plate seal (Corning PCR-SP) and incubated in a humidified 37° C. environment supplemented with 5% CO2 for 30 minutes.
HTRF reagent addition, reading and data analysis. After 30 minutes of cell stimulation with test compound, the assay plates were centrifuged at 500×g for 10 seconds, and incubation was stopped with the addition of 5 μL cAMP-D2 acceptor, diluted 1:21 in detection and lysis buffer 2 (Cisbio 62CL2FDF) was added to all cells. Subsequently, 5 μL Anti-cAMP-Eu Donor, diluted 1:21 in detection and lysis buffer 2, was added to cells. Plates were sealed and reactions gently ‘vortexed’ at 900 rpm on a Heidolph Titramax 1000 for at least 30 minutes at room temperature. Plates were centrifuged again at 500×g for 10 seconds, and HTRF was measured using a Tecan Spark plate reader at 50 flashes per well. […] Potency estimates (EC50) were derived from the four-parameter nonlinear regression of the concentration-effect curve and an estimate of relative efficacy was determined by comparing the magnitude of the test compound HTRF signal window (min−max dose) with the signal window of the full agonist control, isoproterenol.
For orientation: TR-FRET usually uses a lanthanide donor and a delayed reading to cut background.

The next assay addresses B3-AR (Homo sapiens (Human), UniProt P13945). As to the kind of experiment: cAMP potency assay, B3-AR expressing CHO-K1 cells.
For another assay, the target named is β1-adrenergic receptor (Homo sapiens (Human), UniProt P08588). In words: cAMP Gs dynamic HTRF assay, β1 expressing CHO cells. To be noted: B1-AR. The procedure, abridged:
(§1)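 Intracellular cAMP quantified by Eu-donor/d2-acceptor HTRF after 30 min compound exposure at 37° C in stimulation buffer with IBMX. Concentrations ran 10 μM top, 5-fold steps, 10 points. Cell lines: 1321N1 astrocytoma and CHO expressing β1 or β2; EC50 via four-parameter fit, relative efficacy against isoproterenol.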

For another assay, the target named is β2 adrenergic receptor (Homo sapiens (Human), UniProt P07550). As to the kind of experiment: cAMP Gs dynamic HTRF assay, β2 expressing CHO cells. To be noted: B2-AR. A digest of the protocol:
as §1

The mark [2] stands for this setting: read-out: Average pEC50 [Receptor subtype: Endogenous, Cell type: 1321N1] (converted).
[3] abbreviates: read-out: Average pEC50 [Receptor subtype: B3-AR, Cell type: CHO-K1] (converted).
Setting [4] is: CHO-K1 (HitHunter), read-out: Average pEC50 [Receptor subtype: B1-AR, Cell type: CHO-K1 (HitHunter)] (converted).
The mark [5] stands for this setting: CHO-K1 (HitHunter), read-out: Average pEC50 [Receptor subtype: B2-AR, Cell type: CHO-K1 (HitHunter)] (converted).
The mark [6] stands for this setting: CHO-K cells, read-out: Average EC50 [Receptor subtype: B1-AR, Cell type: CHO-K].
The mark [7] stands for this setting: CHO-K cells, read-out: Average EC50 [Receptor subtype: B2-AR, Cell type: CHO-K].
The mark [8] stands for this setting: read-out: Average EC50 [Receptor subtype: Endogenous, Cell type: 1321N1].
[9] abbreviates: read-out: Average EC50 [Receptor subtype: B3-AR, Cell type: CHO-K1].

Like-named read-outs stand apart in the source and are kept apart here. Bounds are passed on as bounds.

Sequence of β1-adrenergic receptor (P08588 whole entry, species assumed): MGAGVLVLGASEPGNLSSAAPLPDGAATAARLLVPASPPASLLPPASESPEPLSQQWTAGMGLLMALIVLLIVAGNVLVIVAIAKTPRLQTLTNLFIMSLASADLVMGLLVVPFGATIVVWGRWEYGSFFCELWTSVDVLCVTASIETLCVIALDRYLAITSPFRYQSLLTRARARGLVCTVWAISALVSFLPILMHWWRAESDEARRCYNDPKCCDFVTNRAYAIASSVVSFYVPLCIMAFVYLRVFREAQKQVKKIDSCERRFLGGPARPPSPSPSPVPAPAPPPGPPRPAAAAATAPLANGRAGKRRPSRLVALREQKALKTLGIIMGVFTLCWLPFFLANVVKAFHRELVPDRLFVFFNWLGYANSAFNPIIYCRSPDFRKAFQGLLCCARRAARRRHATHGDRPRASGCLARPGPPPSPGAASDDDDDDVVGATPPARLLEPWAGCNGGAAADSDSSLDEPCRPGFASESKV
Sequence of B3-AR (P13945 whole entry, species assumed): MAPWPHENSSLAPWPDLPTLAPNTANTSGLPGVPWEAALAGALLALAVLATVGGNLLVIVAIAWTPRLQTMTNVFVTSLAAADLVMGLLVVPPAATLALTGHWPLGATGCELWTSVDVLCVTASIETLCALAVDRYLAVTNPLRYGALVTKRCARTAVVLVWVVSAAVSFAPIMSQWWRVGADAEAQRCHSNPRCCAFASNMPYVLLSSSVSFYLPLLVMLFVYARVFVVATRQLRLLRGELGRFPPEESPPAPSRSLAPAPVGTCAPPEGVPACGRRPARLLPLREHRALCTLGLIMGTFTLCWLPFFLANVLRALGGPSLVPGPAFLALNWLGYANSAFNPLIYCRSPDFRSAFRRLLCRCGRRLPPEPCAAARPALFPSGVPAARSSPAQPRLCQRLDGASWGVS
Sequence of β2 adrenergic receptor (P07550 whole entry, species assumed): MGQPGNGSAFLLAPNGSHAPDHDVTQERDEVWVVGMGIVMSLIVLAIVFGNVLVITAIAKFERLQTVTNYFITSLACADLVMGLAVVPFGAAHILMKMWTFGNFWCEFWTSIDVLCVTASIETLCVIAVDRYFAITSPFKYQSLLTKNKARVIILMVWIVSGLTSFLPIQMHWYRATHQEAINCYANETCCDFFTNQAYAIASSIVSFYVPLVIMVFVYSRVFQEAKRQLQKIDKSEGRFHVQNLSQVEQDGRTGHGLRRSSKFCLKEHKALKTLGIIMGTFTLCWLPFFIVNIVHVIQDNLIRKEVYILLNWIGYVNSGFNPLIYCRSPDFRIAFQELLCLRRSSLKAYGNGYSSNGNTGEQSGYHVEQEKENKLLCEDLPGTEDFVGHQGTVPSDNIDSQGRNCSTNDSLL
Sequence of β2 adrenergic receptors in human astrocytoma cells (1321N1) (P07550 whole entry): as the sequence (P07550 whole entry, species assumed) above

Regarding `CC(C)(C)NCC(O)c1cncc(Cl)n1` (stereo not drawn) [Compound 03-219], the EC50 in assay [1] (setting [2]) was greater than 1000 nM; on B3-AR (setting [3]) it was 100 to 1000 nM; at β1-adrenergic receptor (setting [4]) it was 100 to 1000 nM; at β2 adrenergic receptor (setting [5]) it was 100 to 1000 nM.
In the case of `COc1ccc(CC(C)(C)NC[C@H](O)c2cccc(C(F)(F)F)n2)cc1` [Compound 03-182], the EC50 was less than 10 nM in assay [1] (setting [2]); 100 to 1000 nM at B3-AR (setting [3]); 10 to 100 nM at β1-adrenergic receptor (setting [4]); 10 to 100 nM on β1-adrenergic receptor (setting [6]); less than 10 nM at β2 adrenergic receptor (setting [5]); less than 10 nM at β2 adrenergic receptor (setting [7]).
On to `CC(C)(C)NC[C@H](O)c1cncc(C(F)(F)F)n1` [Compound 03-38], for which the “Average pEC50 [Receptor subtype: Endogenous; Cell type: 1321N1]” value in assay [1] was “C (C = <7-6)”. Besides, the EC50 is 100 to 1000 nM in assay [1] (setting [8]); greater than 1000 nM at B3-AR (setting [9]); greater than 1000 nM at B3-AR (setting [3]); 100 to 1000 nM at β1-adrenergic receptor (setting [6]); 10 to 100 nM at β2 adrenergic receptor (setting [5]); 10 to 100 nM at β2 adrenergic receptor (setting [7]). Further, the “Average pEC50 [Receptor subtype: B1-AR; Cell type: CHO-K1 (HitHunter)]” value at β1-adrenergic receptor (CHO-K1 (HitHunter)) is on record as “C (C = <7-6)”.
On to `CC(C)(COc1ccccc1)NC[C@H](O)c1cccc(C(F)(F)F)n1` [Compound 03-184], for which the EC50 in assay [1] (setting [2]) is 10 to 100 nM; at B3-AR (setting [3]) it was 100 to 1000 nM; at β1-adrenergic receptor (setting [6]), 10 to 100 nM; on β2 adrenergic receptor (setting [5]), 10 to 100 nM; at β2 adrenergic receptor (setting [7]), 10 to 100 nM. Besides, the “Average pEC50 [Receptor subtype: B1-AR; Cell type: CHO-K1 (HitHunter)]” value at β1-adrenergic receptor (CHO-K1 (HitHunter)) is “B (B = 8-7)”.
For `Cc1ccc([C@H](O)CNC(C)(C)C)nc1C#N` [Compound 03-9], the EC50 was 10 to 100 nM in assay [1] (setting [2]); 100 to 1000 nM at B3-AR (setting [3]); 10 to 100 nM at β1-adrenergic receptor (setting [4]); 10 to 100 nM at β1-adrenergic receptor (setting [6]); less than 10 nM at β2 adrenergic receptor (setting [5]); less than 10 nM at β2 adrenergic receptor (setting [7]).
For the compound `CC(C)(C)NC[C@H](O)c1cccnc1C1CCCC1` [Compound 03-53], in assay [1], the “Average pEC50 [Receptor subtype: Endogenous; Cell type: 1321N1]” value is listed as “C (C = <7-6)”. Further, the EC50 in assay [1] (setting [8]) is 100 to 1000 nM; at B3-AR (setting [9]), greater than 1000 nM; on B3-AR (setting [3]), greater than 1000 nM; on β1-adrenergic receptor (setting [6]) it was greater than 1000 nM; on β2 adrenergic receptor (setting [5]) it was 10 to 100 nM; at β2 adrenergic receptor (setting [7]), 10 to 100 nM. Besides, on β1-adrenergic receptor (CHO-K1 (HitHunter)), the “Average pEC50 [Receptor subtype: B1-AR; Cell type: CHO-K1 (HitHunter)]” value is “D (D < 6)”.
Consider `CC(C)NC[C@H](O)c1cccc(C(F)(F)F)n1` [Compound 03-35], for which the EC50 in assay [1] (setting [2]) was 10 to 100 nM; at B3-AR (setting [3]), greater than 1000 nM; on β1-adrenergic receptor (setting [4]), less than 10 nM; on β1-adrenergic receptor (setting [6]), less than 10 nM; at β2 adrenergic receptor (setting [5]) it was 10 to 100 nM; at β2 adrenergic receptor (setting [7]) it was 10 to 100 nM.
On to `CCc1ncccc1[C@@H](O)CNC(C)(C)C` [Compound 03-52], for which the EC50 in assay [1] (setting [2]) is greater than 1000 nM; on B3-AR (setting [3]), greater than 1000 nM; on β1-adrenergic receptor (setting [4]) it was greater than 1000 nM; at β2 adrenergic receptor (setting [5]) it was 100 to 1000 nM.
Take `COc1ccc(C[C@@H](C)NC[C@H](O)c2cccc(C(F)(F)F)n2)cc1` [Compound 03-15]: the EC50 is less than 10 nM in assay [1] (setting [2]); 100 to 1000 nM at B3-AR (setting [3]); less than 10 nM on β1-adrenergic receptor (setting [4]); less than 10 nM at β1-adrenergic receptor (setting [6]); less than 10 nM at β2 adrenergic receptor (setting [5]); less than 10 nM at β2 adrenergic receptor (setting [7]).
In the case of `Cc1ccc([C@H](O)CNC(C)(C)C)nc1C(F)(F)F` [Compound 03-168], the EC50 in assay [1] (setting [2]) is 100 to 1000 nM; on B3-AR (setting [3]), 100 to 1000 nM; at β1-adrenergic receptor (setting [4]) it was 10 to 100 nM; on β1-adrenergic receptor (setting [6]), 10 to 100 nM; on β2 adrenergic receptor (setting [5]), 10 to 100 nM; on β2 adrenergic receptor (setting [7]) it was 10 to 100 nM.
